Test results from paper PMC6731595, “The anti-parasitic agent suramin and several of its analogues are inhibitors of the DNA binding protein Mcm10” (Open Biology, 2019).
Like-named read-outs stand apart in the source and are kept apart here.

T1: human Mcm10 internal domain (hMcm10-ID) (Homo sapiens, UniProt Q7L590)
T1 construct: hMcm10-ID (residues 237 to 436) were expressed in E. coli strain BL21(DE3); 6xHis (HRV 3C site) (N, cleaved yes); made in house; host or cells: E. coli BL21(DE3)
T1 sequence (Q7L590 237-436): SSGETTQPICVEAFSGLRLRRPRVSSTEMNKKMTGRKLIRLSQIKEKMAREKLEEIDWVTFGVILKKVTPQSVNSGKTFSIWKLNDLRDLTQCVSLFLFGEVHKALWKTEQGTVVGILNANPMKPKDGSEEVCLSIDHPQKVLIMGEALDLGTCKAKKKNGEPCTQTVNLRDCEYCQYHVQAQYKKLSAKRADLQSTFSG

T2: full-length Xenopus Mcm10 (xMcm10-FL) (Xenopus laevis, UniProt Q5EAW4)
T2 construct: The full-length xMcm10 was expressed with MBP fused onto the N-terminus and 6x-His tag attached to the C-terminus; 6xHis (C); made in house; host or cells: E. coli BL21(DE3), as for the ID constructs ('as described above')
T2 sequence (Q5EAW4 1-860): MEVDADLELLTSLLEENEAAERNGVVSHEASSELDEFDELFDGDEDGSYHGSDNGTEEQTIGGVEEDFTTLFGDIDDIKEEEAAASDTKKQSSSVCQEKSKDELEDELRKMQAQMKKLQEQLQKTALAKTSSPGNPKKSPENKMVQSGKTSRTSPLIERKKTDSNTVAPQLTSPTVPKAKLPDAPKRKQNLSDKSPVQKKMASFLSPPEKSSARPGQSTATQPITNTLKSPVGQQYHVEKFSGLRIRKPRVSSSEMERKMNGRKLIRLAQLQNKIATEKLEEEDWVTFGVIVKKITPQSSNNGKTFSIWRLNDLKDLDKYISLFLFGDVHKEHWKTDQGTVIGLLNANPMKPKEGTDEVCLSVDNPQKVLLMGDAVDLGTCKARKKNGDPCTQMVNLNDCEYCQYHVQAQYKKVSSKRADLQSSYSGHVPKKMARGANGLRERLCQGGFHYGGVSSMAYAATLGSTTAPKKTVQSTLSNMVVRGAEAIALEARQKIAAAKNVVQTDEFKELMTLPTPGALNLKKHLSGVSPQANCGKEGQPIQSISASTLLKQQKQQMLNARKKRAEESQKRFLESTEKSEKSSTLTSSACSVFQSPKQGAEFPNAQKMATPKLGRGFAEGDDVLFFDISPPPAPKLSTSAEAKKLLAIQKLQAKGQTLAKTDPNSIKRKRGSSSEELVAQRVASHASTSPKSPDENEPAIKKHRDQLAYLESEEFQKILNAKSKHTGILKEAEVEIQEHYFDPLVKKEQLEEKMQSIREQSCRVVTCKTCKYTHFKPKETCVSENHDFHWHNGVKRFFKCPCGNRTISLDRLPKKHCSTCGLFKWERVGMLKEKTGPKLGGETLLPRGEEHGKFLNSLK

T3: hMcm10-ID (Homo sapiens, UniProt Q7L590)
T3 construct: hMcm10-ID (residues 237 to 436) were expressed in E. coli strain BL21(DE3); 6xHis (HRV 3C site) (N, cleaved yes); made in house; host or cells: E. coli BL21(DE3)
T3 sequence (Q7L590 237-436): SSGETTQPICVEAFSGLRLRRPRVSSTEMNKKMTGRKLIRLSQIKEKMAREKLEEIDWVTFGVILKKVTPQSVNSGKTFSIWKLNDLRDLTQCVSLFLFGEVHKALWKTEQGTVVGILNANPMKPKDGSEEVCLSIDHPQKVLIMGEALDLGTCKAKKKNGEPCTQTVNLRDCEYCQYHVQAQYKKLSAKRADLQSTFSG

T4: xMcm10-FL (Xenopus laevis, UniProt Q5EAW4 1-860)
T4 sequence: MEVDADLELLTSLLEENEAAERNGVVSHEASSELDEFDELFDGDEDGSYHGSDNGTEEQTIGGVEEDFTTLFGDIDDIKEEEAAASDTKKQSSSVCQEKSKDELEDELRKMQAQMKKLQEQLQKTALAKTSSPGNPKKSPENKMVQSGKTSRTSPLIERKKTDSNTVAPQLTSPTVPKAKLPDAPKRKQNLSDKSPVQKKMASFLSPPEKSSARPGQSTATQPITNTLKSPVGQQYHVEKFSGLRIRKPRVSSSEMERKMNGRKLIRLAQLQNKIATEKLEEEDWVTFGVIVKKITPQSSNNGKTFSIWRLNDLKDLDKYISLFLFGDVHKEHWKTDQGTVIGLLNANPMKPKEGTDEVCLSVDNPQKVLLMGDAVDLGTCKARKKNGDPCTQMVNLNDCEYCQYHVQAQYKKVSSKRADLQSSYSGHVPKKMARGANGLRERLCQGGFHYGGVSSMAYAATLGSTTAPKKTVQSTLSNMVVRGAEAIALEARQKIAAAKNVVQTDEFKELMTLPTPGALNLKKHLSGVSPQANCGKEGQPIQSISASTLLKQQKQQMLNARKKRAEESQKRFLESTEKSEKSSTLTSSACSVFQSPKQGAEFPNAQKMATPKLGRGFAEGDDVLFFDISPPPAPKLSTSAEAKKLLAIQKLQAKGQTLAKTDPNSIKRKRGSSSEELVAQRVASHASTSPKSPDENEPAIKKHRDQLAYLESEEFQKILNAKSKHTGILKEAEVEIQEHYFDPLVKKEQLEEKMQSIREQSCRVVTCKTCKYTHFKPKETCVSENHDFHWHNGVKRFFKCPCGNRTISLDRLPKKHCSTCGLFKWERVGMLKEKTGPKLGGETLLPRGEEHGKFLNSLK

T5: xMcm10-ID (Xenopus laevis, UniProt Q5EAW4 229-427)
T5 sequence: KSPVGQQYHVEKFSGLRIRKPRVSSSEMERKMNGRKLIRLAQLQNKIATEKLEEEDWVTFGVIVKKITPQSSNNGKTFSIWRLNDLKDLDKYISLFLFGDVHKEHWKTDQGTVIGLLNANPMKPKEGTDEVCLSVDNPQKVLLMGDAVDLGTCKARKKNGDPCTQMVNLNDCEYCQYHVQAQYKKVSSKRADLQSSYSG

T6: hMcm10-ID (Homo sapiens, UniProt Q7L590 237-436)
T6 sequence: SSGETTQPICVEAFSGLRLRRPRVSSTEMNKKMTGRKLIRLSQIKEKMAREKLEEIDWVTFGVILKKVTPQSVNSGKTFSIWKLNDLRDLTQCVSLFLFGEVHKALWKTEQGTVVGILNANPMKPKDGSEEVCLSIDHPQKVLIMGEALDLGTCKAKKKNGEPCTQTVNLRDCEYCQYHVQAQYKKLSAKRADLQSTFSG


Tests used:
[1] = target: T1, human Mcm10 internal domain (hMcm10-ID); assay: Fluorescence polarization competition assay, displacement of 5′-6FAM 10-mer ssDNA probe from hMcm10-ID; type: binding; conditions: mean ± s.e.m., n ≥ 3; hMcm10-ID 1 μM, probe 12.5 nM
Experimental: (§1) A fluorescence polarization (FP) HTS assay was established to detect inhibitors of the binding of the 5′-6FAM 10-mer oligo probe to Mcm10. Test compounds dissolved in DMSO were added to 384-well plates (Corning 4514) using an Echo 550 acoustic dispenser (final DMSO 0.1%) to achieve a final single point screening concentration of 10 µM. Then 10 µl of 2× Xenopus internal domain Mcm10 (xMcm10-ID, final concentration 2 µM) in binding buffer (20 mM Tris HCl, 100 mM NaCl, 5% glycerol, and 0.01% triton, pH 7.5) was added using the Combi nL Multidrop dispenser. Finally, 10 µl of 2× 5′-6FAM DNA (final 12.5 nM) in binding buffer was added using the Multidrop. DMSO (0.1%, high signal) and probe only (low signal) controls were included on every plate. Plates were mixed for 2 min, incubated for 60 min at RT in the dark, and read on a CLARIOstar multimode plate reader (excitation: 482-16, emission: 530-40, dichroic filter: LP504).
(§2) The LOPAC pilot screen identified the sulfhydryl reagent 4-chloromercuribenzoic acid as an inhibitor in the fluorescence polarization (FP) assay. As there was no known Mcm10 inhibitor, 4-chloromercuribenzoic acid (30 μM) was used as a positive control on initial screening plates. Following the discovery of suramin as a Mcm10 inhibitor, suramin (7 μM) was used as a positive control on subsequent screening plates. To confirm activity, screening hits were tested in dose response experiments (8 concentrations in duplicate) using xMcm10-ID. Similar dose response experiments were conducted with suramin and its analogs to confirm activity for hMcm10-ID (1 μM) and xMcm10-FL (2 μM) and to determine selectivity relative to RPA70AB (0.4 μM). Saturation experiments for each protein were conducted using increasing concentrations of protein with a fixed probe concentration (12.5 nM). FP was measured in mP units, and ∆mP values for each well were calculated as the difference between the measured mP and the average of the “probe only” controls. […] The parallel and perpendicular mP values were also used to calculate total fluorescence intensity (TFI) determined by the sum of parallel mP + (2 x perpendicular mP). TFI was used to detect fluorescence interference by compounds [1]. […] IC50 values were calculated using the four parameter logistic equation in Prism 6.0 (GraphPad). Ki values were obtained using an online Ki calculator according to the equations of Nikolovska-Coleska (http://sw16.im.med.umich.edu/soft-ware/calc_ki/). KD values were calculated using the one site or two site binding equations in Prism 6.0 (GraphPad).

[2] = target: T2, full-length Xenopus Mcm10 (xMcm10-FL); assay: Fluorescence polarization competition assay, displacement of 5′-6FAM ssDNA probe from xMcm10-FL; type: binding; conditions: averages of n = 2; xMcm10-FL 2 μM
Experimental: as §1, §2

[3] = target: T7, human RPA70AB (A and B DNA binding domains of RPA70) (Homo sapiens, UniProt P27694); assay: Fluorescence polarization competition assay, displacement of 5′-6FAM ssDNA probe from RPA70AB; conditions: for Ki: mean ± s.e.m., n ≥ 3
T7 construct: recombinant human RPA70AB (181-422) in a pSV281 vector; 6xHis (TEV site) (N, cleaved yes); made in house; host or cells: Escherichia coli BL21(DE3)
T7 sequence (P27694 181-422): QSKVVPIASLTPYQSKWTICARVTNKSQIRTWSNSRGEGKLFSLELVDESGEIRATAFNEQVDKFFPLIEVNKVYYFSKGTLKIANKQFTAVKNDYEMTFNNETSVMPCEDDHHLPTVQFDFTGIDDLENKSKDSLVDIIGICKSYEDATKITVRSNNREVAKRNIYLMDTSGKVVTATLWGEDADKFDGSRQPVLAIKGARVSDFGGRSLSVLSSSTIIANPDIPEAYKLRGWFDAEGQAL
Experimental: as §1, §2

hMcm10-ID [4] = target: T3, hMcm10-ID; assay: Surface plasmon resonance binding kinetics on immobilized hMcm10-ID (Biacore S200)
Experimental: SPR experiments were performed using a Biacore S200 (GE Healthcare) equipped with a research-grade CM5 sensor chip. hMcm10-ID, at a concentration of 15 µg ml^−1 in 10 mM sodium acetate, pH 4.5, […], using an amine coupling kit (GE Healthcare) to either flow cell 2 or 4 following manufacturer directions. The reference flow cell (either flow cell 1 or 3) was left untreated. All compounds were dissolved in running buffer (10 mM PBS, 150 mM NaCl, 0.005% P20, pH 7.4) prior to injection over the chip surface at a flow rate of 30 µl min^−1 and at a temperature of 25°C. Zero concentration samples were injected for double referencing. Data were collected at a rate of 40 Hz and were fitted to a simple 1 : 1 interaction model (unless otherwise noted) using the global data analysis within the Biacore S200 evaluation software.

RPA70AB = RPA70AB (Homo sapiens, UniProt P27694 181-422); assay: fluorescence polarization; FP: 20 mM Tris-HCl, 100 mM NaCl, 5% glycerol, 0.01% Triton, pH 7.5, RT 60 min, 12.5 nM probe (0.1% DMSO in HTS); conditions: protein: recombinant; label: 5'-6-FAM; single strand
Chain of RPA70AB (P27694 181-422): as above

xMcm10-FL = target: T4, xMcm10-FL; assay: as above; conditions: protein: recombinant; label: 5'-6-FAM; single strand
xMcm10-ID = target: T5, xMcm10-ID; assay: as above; conditions: protein: recombinant; label: 5'-6-FAM; single strand
hMcm10-ID [5] = target: T6, hMcm10-ID; assay: as above; conditions: protein: recombinant; label: 5'-6-FAM; single strand

Ki [1] | Ki [2] | Ki ([3]; high-affinity component of biphasic displacement curve, read-out: fluorescence polarization hRPA70AB Ki1) | Ki ([3]; predominant low-affinity (or only) component, read-out: fluorescence polarization hRPA70AB Ki2) | selectivity RPA/ hMcm10 ([3]; ratio of hRPA70AB Ki2 to hMcm10-ID Ki (FP)) | surface plasmon resonance hMcm10-ID kd (hMcm10-ID [4]; 1:1 model, 6000–8000 RU, 25°C) | kon (hMcm10-ID [4]; 1:1 model, 6000–8000 RU, 25°C, read-out: surface plasmon resonance hMcm10-ID ka) | Kd (hMcm10-ID [4]; calculated from association and dissociation rate constants, 1:1 model, 6000–8000 RU, read-out: surface plasmon resonance hMcm10-ID kinetic KD) | SPR binding kinetics (description of sensorgrams) (hMcm10-ID [4]; immobilized hMcm10-ID) | Molecule | Kd (RPA70AB) | Kd (xMcm10-FL) | Kd (xMcm10-ID) | Kd (hMcm10-ID [5])
2.3 ± 0.1 µM | 2.9 µM | 0.21 ± 0.04 µM | 23 ± 1 µM | 10 | 0.35 ± 0.19 s^−1 | 290000 ± 1.6e+10 M⁻¹ s⁻¹ | 1.5 ± 0.2 µM | predominantly rapid kinetics | O=C(Nc1cc(C(=O)Nc2ccc(S(=O)(=O)O)cc2)cc(C(=O)Nc2ccc(S(=O)(=O)O)cc2)c1)Nc1cc(C(=O)Nc2ccc(S(=O)(=O)O)cc2)cc(C(=O)Nc2ccc(S(=O)(=O)O)cc2)c1 [NF110] | – | – | – | –
– | – | – | – | – | – | – | – | – | ATGGTAGGCA (ssDNA) [5'-6FAM 10-mer] | 0.37 µM | 1.1 µM | 1.3 µM | 2.29 µM
